In article PMC6491818, “Novel 4-Acrylamido-Quinoline Derivatives as Potent PI3K/mTOR Dual Inhibitors: The Design, Synthesis, and in vitro and in vivo Biological Evaluation” (Frontiers in Chemistry, 2019):

Legend:
[1] = target: PI3Kα (Homo sapiens, UniProt P42336); assay: PI3Kα enzymatic assay (Kinase-Glo Luminescent Kinase assay); type: biochemical
Method: (§2) Kinase-Glo Luminescent Kinase assay (Promega) was performed to determine the PI3Kα inhibitory activity, while ADP-Glo Luminescent assay (Promega) was performed to identify the inhibitory activity against PI3Kβ, γ, or δ. The kinase buffer was composed of HEPES (50 mM, pH 7.5), MgCl2 (3 mM), EGTA (1 mM), NaCl (100 mM), CHAPS (0.03%) and DTT (2 mM). The serially diluted compound solutions (2.5 mL) were successively added to a 384-well plate. Afterwards, the solution of kinase (2.5 mL) in the kinase buffer and the solution of substrate (5 mL) in the kinase buffer containing PIP2 and ATP were added to each well of the assay plate for starting the reaction. Kinase buffer was added instead to the control well without enzyme. […] After being incubated at room temperature for 1 h, Kinase-Glo reagent (10 mL) was added to each well of the PI3Kα assay plate to quench the reaction. […] The mixture was treated briefly with centrifuge, shaken slowly, and equilibrated for 40 min. Kinase Detection reagent (10 mL) was added to each well. Before reading on a plate reader for luminescence, the resultant mixture was incubated at room temperature for 1 h. After calculating the percent inhibition from the RLU values, the curves were fitted in Graphpad Prism 5 to give IC50 values.

[2] = system: prostate cancer PC3 cell line; assay: Anti-proliferative SRB assay, PC3; type: cell-based; settings: PC3 cells, 72 h exposure
Method: (§1) The anti-proliferative activity of compounds was evaluated by sulforhodamin B (SRB) assay. After being cultured for 10 h, cells in 96-well plates were subjected to 72 h-exposure to serially diluted compound solutions. Cells were washed with PBS and fixed with trichloroacetic acid (10%, W/V) at 4°C for 1 h. Then, cells were successively washed with PBS, stained for 0.5 h with SRB (0.4%, dissolved in 1% acetic acid), and washed by 1% acetic acid for 5 times. Protein-bound dye was extracted with unbuffered Tris base (10 mmol). After calculating the percent inhibition from absorbance, measured at 515 nm with a multiscan spectrum (Thermo Electron Co., Vantaa, Finland), the curves were fitted in Graphpad Prism 5 to give GI50 values.

[3] = system: colorectal cancer HCT116 cell line; assay: Anti-proliferative SRB assay, HCT116; type: cell-based; settings: 72 h exposure; for GI50: Homo sapiens, HCT-116, HCT116 cells; for GI50 HCT116: HCT116 cells
Method: as §1

[4] = target: PI3Kβ (Homo sapiens, UniProt P42338); assay: PI3Kβ enzymatic assay (ADP-Glo Luminescent assay); type: biochemical
Chain of PI3Kβ (P42338 whole entry): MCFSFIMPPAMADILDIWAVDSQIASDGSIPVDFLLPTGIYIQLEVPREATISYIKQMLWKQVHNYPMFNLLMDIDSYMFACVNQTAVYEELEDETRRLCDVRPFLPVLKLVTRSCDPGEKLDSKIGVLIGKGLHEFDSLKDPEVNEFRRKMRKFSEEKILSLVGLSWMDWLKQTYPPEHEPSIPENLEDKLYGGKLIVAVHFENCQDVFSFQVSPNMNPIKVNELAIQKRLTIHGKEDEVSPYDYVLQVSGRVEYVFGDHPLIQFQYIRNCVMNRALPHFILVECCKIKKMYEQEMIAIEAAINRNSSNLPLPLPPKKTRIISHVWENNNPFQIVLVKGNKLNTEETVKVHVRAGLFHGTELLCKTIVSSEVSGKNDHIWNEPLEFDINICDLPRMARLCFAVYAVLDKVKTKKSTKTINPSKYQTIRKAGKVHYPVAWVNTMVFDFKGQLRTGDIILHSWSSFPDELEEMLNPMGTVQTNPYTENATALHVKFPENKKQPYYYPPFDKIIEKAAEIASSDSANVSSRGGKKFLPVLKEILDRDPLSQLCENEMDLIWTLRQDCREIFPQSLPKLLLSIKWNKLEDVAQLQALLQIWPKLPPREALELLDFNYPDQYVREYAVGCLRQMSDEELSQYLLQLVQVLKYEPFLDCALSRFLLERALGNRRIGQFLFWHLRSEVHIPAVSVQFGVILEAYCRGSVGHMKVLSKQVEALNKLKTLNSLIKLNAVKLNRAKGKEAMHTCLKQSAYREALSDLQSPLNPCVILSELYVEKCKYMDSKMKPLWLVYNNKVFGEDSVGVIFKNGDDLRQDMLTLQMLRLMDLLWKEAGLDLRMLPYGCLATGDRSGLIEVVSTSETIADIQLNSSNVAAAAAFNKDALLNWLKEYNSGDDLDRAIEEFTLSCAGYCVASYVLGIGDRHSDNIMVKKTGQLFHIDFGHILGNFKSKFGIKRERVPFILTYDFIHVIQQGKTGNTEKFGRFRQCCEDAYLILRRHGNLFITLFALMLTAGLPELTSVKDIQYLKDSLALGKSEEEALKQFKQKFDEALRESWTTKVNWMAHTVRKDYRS
Chain of PI3Kβ (P27986 whole entry partner): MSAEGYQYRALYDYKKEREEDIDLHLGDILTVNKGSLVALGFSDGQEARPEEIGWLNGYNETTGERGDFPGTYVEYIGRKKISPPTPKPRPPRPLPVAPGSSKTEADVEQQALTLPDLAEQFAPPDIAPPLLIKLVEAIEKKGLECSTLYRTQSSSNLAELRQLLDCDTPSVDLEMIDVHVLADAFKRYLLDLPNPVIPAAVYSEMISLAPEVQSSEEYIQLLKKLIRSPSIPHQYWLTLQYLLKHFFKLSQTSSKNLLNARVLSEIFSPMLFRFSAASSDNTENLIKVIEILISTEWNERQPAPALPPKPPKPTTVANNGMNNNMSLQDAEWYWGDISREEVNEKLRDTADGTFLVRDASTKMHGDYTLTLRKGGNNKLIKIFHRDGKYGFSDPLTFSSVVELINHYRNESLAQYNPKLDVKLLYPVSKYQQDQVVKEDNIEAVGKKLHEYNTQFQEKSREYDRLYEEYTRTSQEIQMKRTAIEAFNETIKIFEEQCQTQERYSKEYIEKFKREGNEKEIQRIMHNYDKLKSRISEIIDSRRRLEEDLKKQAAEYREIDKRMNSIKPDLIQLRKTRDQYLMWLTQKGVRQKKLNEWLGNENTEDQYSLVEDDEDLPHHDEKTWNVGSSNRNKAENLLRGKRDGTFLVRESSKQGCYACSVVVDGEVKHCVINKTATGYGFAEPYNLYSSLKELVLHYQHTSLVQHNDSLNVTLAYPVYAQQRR
Method: as §2

[5] = target: PI3Kγ (Homo sapiens, UniProt P48736); assay: PI3Kγ enzymatic assay (ADP-Glo Luminescent assay); type: biochemical
Chain of PI3Kγ (P48736 whole entry): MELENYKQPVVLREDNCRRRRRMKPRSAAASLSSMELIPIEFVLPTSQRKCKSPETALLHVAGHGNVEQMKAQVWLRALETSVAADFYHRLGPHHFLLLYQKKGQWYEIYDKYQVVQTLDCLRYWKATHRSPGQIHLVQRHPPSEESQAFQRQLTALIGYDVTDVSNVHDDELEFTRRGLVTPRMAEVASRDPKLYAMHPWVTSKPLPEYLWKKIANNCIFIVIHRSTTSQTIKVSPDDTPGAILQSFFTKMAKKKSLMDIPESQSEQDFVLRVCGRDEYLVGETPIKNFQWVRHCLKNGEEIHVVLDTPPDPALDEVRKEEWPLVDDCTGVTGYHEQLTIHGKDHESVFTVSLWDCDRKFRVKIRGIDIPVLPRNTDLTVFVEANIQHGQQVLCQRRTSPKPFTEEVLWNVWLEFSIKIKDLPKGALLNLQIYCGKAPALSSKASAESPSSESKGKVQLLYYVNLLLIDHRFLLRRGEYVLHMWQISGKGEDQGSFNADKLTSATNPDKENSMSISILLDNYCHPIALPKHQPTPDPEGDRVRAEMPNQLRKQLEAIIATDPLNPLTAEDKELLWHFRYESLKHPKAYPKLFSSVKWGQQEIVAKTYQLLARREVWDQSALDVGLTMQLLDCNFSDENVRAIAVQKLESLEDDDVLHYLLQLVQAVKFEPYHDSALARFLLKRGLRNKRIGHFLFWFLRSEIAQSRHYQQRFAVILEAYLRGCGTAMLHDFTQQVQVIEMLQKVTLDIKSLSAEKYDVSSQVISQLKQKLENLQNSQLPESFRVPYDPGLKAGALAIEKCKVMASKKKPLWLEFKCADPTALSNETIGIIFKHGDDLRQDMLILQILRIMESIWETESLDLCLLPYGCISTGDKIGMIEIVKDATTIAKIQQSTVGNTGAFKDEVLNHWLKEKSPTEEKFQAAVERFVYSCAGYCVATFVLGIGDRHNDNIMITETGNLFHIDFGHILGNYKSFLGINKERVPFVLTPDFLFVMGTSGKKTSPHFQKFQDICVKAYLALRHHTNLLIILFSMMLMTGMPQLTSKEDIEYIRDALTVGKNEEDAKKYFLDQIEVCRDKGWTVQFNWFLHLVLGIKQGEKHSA
Method: Kinase-Glo Luminescent Kinase assay (Promega) was performed to determine the PI3Kα inhibitory activity, while ADP-Glo Luminescent assay (Promega) was performed to identify the inhibitory activity against PI3Kβ, γ, or δ. The kinase buffer was composed of HEPES (50 mM, pH 7.5), MgCl2 (3 mM), EGTA (1 mM), NaCl (100 mM), CHAPS (0.03%) and DTT (2 mM). The serially diluted compound solutions […] were successively added to a 384-well plate. Afterwards, the solution of kinase […] in the kinase buffer and the solution of substrate (5 mL) in the kinase buffer containing PIP2 and ATP were added to each well of the assay plate for starting the reaction. Kinase buffer was added instead to the control well without enzyme. The final concentrations of PI3Kα, PI3Kβ, PI3Kγ, PI3Kδ, PIP2, and ATP in corresponding kinase reaction mixture were 1.65 nM, 4.8 nM, 7.6 nM, 5.7 nM, […], respectively. After being incubated at room temperature for 1 h, Kinase-Glo reagent […] was added to each well of the PI3Kα assay plate to quench the reaction. Subsequently, the mixture needs to be mixed briefly with centrifuge and shaken slowly for 15 min before being read on a plate reader for luminescence. As for PI3Kβ, γ, or δ, reaction mixture (5 mL) was transferred to a new 384-plate and ADP-Glo reagent (5 mL) was added for stopping the reaction. The mixture was treated briefly with centrifuge, shaken slowly, and equilibrated for 40 min. Kinase Detection reagent […] was added to each well. Before reading on a plate reader for luminescence, the resultant mixture was incubated at room temperature for 1 h. After calculating the percent inhibition from the RLU values, the curves were fitted in Graphpad Prism 5 to give IC50 values.

[6] = target: PI3Kδ (Homo sapiens, UniProt O00329); assay: PI3Kδ enzymatic assay (ADP-Glo Luminescent assay); type: biochemical
Chain of PI3Kδ (O00329 whole entry): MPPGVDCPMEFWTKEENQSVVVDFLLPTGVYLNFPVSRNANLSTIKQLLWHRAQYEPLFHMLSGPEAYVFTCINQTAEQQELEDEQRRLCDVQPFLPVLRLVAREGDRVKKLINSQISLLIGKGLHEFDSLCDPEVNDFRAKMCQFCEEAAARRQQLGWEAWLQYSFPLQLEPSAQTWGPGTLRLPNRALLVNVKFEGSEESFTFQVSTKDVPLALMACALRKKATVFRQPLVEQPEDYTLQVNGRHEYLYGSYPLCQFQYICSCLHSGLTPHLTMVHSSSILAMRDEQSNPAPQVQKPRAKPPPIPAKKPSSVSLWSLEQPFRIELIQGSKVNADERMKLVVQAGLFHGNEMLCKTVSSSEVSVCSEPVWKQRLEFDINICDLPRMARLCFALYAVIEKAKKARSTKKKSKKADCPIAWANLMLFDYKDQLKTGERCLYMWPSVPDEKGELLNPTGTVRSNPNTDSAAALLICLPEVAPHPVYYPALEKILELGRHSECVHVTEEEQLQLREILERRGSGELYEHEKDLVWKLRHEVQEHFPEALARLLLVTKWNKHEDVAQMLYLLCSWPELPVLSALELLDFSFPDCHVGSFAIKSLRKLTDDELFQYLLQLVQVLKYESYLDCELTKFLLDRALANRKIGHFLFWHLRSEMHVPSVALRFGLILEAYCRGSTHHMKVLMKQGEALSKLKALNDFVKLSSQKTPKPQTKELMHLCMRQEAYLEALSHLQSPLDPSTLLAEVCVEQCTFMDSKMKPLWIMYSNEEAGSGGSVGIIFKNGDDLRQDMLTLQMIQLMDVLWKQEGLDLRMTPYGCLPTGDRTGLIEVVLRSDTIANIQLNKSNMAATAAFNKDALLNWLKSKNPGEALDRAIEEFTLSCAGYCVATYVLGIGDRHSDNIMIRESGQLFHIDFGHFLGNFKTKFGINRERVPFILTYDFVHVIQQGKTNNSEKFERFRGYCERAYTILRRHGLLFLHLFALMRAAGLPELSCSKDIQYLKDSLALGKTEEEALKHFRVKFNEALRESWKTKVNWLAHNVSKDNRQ
Chain of PI3Kδ (P27986 whole entry partner): as the sequence (P27986 whole entry partner) above
Method: as §2

[7] = target: mTOR (1362-end, Millipore) (Homo sapiens, UniProt P42345); assay: mTOR enzymatic assay (Lance Ultra assay); type: biochemical
Method: The kinase buffer was composed of HEPES (50 mM, pH 7.5), MgCl2 (10 mM), EGTA (1 mM), MnCl2 (3 mM), Tween-20 (0.01%) and DTT (2 mM). The solution of substrate in the kinase buffer contained ULight-4E-BP1 peptide (Thr37/46, PE) and ATP. […] After being incubated at room temperature for 1 h, kinase detection buffer (10 mL) containing EDTA and Eu-anti-phospho-4E-BP1 antibody (Thr37/46, PE) was added to each well of the assay plate. Before reading on a plate reader, the mixture needs to be mixed briefly with centrifuge and then allowed to equilibrate for 1 h. After calculating the percent inhibition from Lance signal, the curves were fitted in Graphpad Prism 5 to give IC50 values.

Chain of PI3Kα (P42336 whole entry): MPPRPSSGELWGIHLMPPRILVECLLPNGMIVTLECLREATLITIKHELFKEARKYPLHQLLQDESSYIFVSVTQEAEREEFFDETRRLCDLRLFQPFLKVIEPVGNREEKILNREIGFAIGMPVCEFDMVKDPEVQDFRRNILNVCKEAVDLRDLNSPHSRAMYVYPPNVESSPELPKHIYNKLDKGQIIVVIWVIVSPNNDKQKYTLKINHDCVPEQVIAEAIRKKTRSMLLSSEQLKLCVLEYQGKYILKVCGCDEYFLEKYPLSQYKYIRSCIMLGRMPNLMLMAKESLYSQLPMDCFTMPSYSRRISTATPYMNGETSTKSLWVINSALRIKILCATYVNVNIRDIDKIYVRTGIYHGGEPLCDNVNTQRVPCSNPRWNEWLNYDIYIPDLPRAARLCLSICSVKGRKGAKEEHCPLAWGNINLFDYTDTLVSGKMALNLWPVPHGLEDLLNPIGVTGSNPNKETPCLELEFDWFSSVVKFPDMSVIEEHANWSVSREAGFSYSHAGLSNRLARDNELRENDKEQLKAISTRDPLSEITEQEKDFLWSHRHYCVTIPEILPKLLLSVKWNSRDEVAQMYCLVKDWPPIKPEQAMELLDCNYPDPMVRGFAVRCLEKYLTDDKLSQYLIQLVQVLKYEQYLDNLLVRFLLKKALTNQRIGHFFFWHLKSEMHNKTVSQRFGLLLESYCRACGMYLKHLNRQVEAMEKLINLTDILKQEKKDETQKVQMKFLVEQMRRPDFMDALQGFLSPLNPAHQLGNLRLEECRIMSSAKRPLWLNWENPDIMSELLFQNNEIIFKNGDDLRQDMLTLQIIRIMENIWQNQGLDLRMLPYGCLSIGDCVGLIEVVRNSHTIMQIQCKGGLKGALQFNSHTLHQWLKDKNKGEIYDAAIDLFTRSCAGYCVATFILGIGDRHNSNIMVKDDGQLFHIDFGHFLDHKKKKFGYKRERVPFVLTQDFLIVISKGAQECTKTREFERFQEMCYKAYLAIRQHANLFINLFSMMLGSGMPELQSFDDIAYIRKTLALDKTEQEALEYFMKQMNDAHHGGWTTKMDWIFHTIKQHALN
Chain of PI3Kα (P27986 whole entry partner): as the sequence (P27986 whole entry partner) above

Structure (SMILES) | IC50 [1] | GI50 ([2]; Homo sapiens, PC-3, 72 h) | GI50 [3] | IC50 [4] | IC50 [5] | IC50 [6] | IC50 [7] | GI50 [2] | GI50 HCT116 [3]
COc1ncc(-c2ccc3nccc(/C=C/C(=O)NC(C)(C)C)c3c2)cc1NS(=O)(=O)c1ccc(F)cc1F [8a, (E)-N-(tert-butyl)-3-(6-(5-((2,4-difluorophenyl)sulfonamido)-6-methoxypyridin-3-yl)quinolin-4-yl)acrylamide] | 0.63 nM | 1900 nM | 700 nM |  |  |  |  |  | 
COCCNC(=O)/C=C/c1ccnc2ccc(-c3cnc(OC)c(NS(=O)(=O)c4ccc(F)cc4F)c3)cc12 [8b, (E)-3-(6-(5-((2,4-difluorophenyl)sulfonamido)-6-methoxypyridin-3-yl)quinolin-4-yl)-N-(2-methoxyethyl)acrylamide] | 2.03 nM | 840 nM | 1130 nM |  |  |  |  |  | 
COc1ncc(-c2ccc3nccc(/C=C/C(=O)N(C)CCO)c3c2)cc1NS(=O)(=O)c1ccc(F)cc1F [8c, (E)-3-(6-(5-((2,4-difluorophenyl)sulfonamido)-6-methoxypyridin-3-yl)quinolin-4-yl)-N-(2-hydroxyethyl)-N-methylacrylamide] | 0.67 nM | < 500 nM | 960 nM | 1.2 nM | 0.5 nM | 1.3 nM | 1.2 nM | 450 nM | sub-micromolar
COc1ncc(-c2ccc3nccc(/C=C/C(=O)NC4CC4)c3c2)cc1NS(=O)(=O)c1ccc(F)cc1F [8d, (E)-N-cyclopropyl-3-(6-(5-((2,4-difluorophenyl)sulfonamido)-6-methoxypyridin-3-yl)quinolin-4-yl)acrylamide] | 1.03 nM | 1870 nM | 1560 nM |  |  |  |  |  | 
COc1ncc(-c2ccc3nccc(/C=C/C(=O)NC4CCC4)c3c2)cc1NS(=O)(=O)c1ccc(F)cc1F [8e, (E)-N-cyclobutyl-3-(6-(5-((2,4-difluorophenyl)sulfonamido)-6-methoxypyridin-3-yl)quinolin-4-yl)acrylamide] | 1.43 nM | 1480 nM | 1250 nM |  |  |  |  |  | 
COc1ncc(-c2ccc3nccc(/C=C/C(=O)N4CCCC4)c3c2)cc1NS(=O)(=O)c1ccc(F)cc1F [8f, (E)-2,4-difluoro-N-(2-methoxy-5-(4-(3-oxo-3-(pyrrolidin-1-yl)prop-1-en-1-yl)quinolin-6-yl)pyridin-3-yl)benzenesulfonamide] | 0.62 nM | 950 nM | 1460 nM |  |  |  |  |  | 
COc1ncc(-c2ccc3nccc(/C=C/C(=O)N4CCCCC4)c3c2)cc1NS(=O)(=O)c1ccc(F)cc1F [8g, (E)-2,4-difluoro-N-(2-methoxy-5-(4-(3-oxo-3-(piperidin-1-yl)prop-1-en-1-yl)quinolin-6-yl)pyridin-3-yl)benzenesulfonamide] | 0.68 nM | 2500 nM | 1300 nM |  |  |  |  |  | 
COc1ncc(-c2ccc3nccc(/C=C/C(=O)N4CCOCC4)c3c2)cc1NS(=O)(=O)c1ccc(F)cc1F [8h, (E)-2,4-difluoro-N-(2-methoxy-5-(4-(3-morpholino-3-oxoprop-1-en-1-yl)quinolin-6-yl)pyridin-3-yl)benzenesulfonamide] | 0.53 nM | < 500 nM | 510 nM |  |  |  |  | 360 nM | sub-micromolar
COc1ncc(-c2ccc3nccc(/C=C/C(=O)N4CCN(C(C)C)CC4)c3c2)cc1NS(=O)(=O)c1ccc(F)cc1F [8j, (E)-2,4-difluoro-N-(5-(4-(3-(4-isopropylpiperazin-1-yl)-3-oxoprop-1-en-1-yl)quinolin-6-yl)-2-methoxypyridin-3-yl)benzenesulfonamide] | 1.9 nM | 880 nM | 970 nM |  |  |  |  |  | 
COc1ncc(-c2ccc3nccc(/C=C/C(=O)N4CCC(O)CC4)c3c2)cc1NS(=O)(=O)c1ccc(F)cc1F [8k, (E)-2,4-difluoro-N-(5-(4-(3-(4-hydroxypiperidin-1-yl)-3-oxoprop-1-en-1-yl)quinolin-6-yl)-2-methoxypyridin-3-yl)benzenesulfonamide] | 0.79 nM | < 500 nM | 320 nM |  |  |  |  | 280 nM | sub-micromolar
COc1ncc(-c2ccc3nccc(/C=C/C(=O)N4CCCC(O)C4)c3c2)cc1NS(=O)(=O)c1ccc(F)cc1F (stereo not shown) [8l, (E)-2,4-difluoro-N-(5-(4-(3-(3-hydroxypiperidin-1-yl)-3-oxoprop-1-en-1-yl)quinolin-6-yl)-2-methoxypyridin-3-yl)benzenesulfonamide] | 0.75 nM | 1310 nM | 1560 nM |  |  |  |  |  | 
COc1ncc(-c2ccc3nccc(/C=C/C(=O)N4CCC(CO)CC4)c3c2)cc1NS(=O)(=O)c1ccc(F)cc1F [8m, (E)-2,4-difluoro-N-(5-(4-(3-(4-(hydroxymethyl)piperidin-1-yl)-3-oxoprop-1-en-1-yl)quinolin-6-yl)-2-methoxypyridin-3-yl)benzenesulfonamide] | 0.68 nM | 2560 nM | 1290 nM |  |  |  |  |  | 
COc1ncc(-c2ccc3nccc(/C=C/C(=O)NCCN4CCOCC4)c3c2)cc1NS(=O)(=O)c1ccc(F)cc1F [8n, (E)-3-(6-(5-((2,4-difluorophenyl)sulfonamido)-6-methoxypyridin-3-yl)quinolin-4-yl)-N-(2-morpholinoethyl)acrylamide] | 1.1 nM | 1430 nM | 1790 nM |  |  |  |  |  | 
COc1ncc(-c2ccc3nccc(/C=C/C(=O)Nc4ccccc4)c3c2)cc1NS(=O)(=O)c1ccc(F)cc1F [8o, (E)-3-(6-(5-((2,4-difluorophenyl)sulfonamido)-6-methoxypyridin-3-yl)quinolin-4-yl)-N-phenylacrylamide] | 1.8 nM | 4830 nM | 1520 nM |  |  |  |  |  | 
COc1ncc(-c2ccc3nccc(-c4ccnnc4)c3c2)cc1NS(=O)(=O)c1ccc(F)cc1F [GSK2126458, reference compound] |  | 220 nM | 180 nM |  | 0.44 nM |  |  |  | 
COc1ncc(-c2ccc3ncccc3c2)cc1NS(=O)(=O)c1ccc(F)cc1F [compound 10, 2,4-Difluoro-N-(2-methoxy-5-(quinolin-6-yl)pyridin-3-yl)benzenesulfonamide] | 14.3 nM | 7160 nM | 3670 nM |  |  |  |  |  | 
